From ChEMBL document CHEMBL1135966, “New synthetic analogues of N-acyl homoserine lactones as agonists or antagonists of transcriptional regulators involved in bacterial quorum sensing” (Bioorg Med Chem Lett, 2002) come the findings set out here.

The test concerns Aliivibrio fischeri. Nature of the test: Concentration required for 50% inhibition of 3-oxo-C6-HSL-induced luminescence of the biosensor strain.

As a reminder, the IC50 is the midpoint of a concentration-inhibition curve. Low values mean greater potency in that assay, high ones weaker potency in that assay. `O=C(CCCc1ccccc1)NC1CCOC1=O` (centres undefined) registered an IC50 of 2 µM.
In the case of `O=C(COCc1ccccc1)NC1CCOC1=O` (centres undefined) it was 3 µM.
In the case of `O=C(CC(=O)NC1CCOC1=O)Cc1ccc(Cl)cc1` (centres undefined) it was 3 µM.
In the case of `CCCCCC(=O)NC1CCOC1=O` (centres undefined) it was over 9 µM; in that of `O=C(CC(=O)NC1CCOC1=O)Cc1ccc(Br)cc1` (centres undefined), 2 µM; in that of `Cc1ccc(CC(=O)CC(=O)NC2CCOC2=O)cc1` (centres undefined), 4 µM.
For the molecule `O=C(CC(=O)NC1CCOC1=O)Cc1cccc(Cl)c1` (centres undefined), the IC50 turned out to be 4 µM.
In the case of `COc1ccc(CC(=O)CC(=O)NC2CCOC2=O)cc1` (centres undefined) it was 3 µM; in that of `O=C(CCCC1CCCCC1)NC1CCOC1=O` (centres undefined), over 6 µM.
Regarding `CCCC(=O)CC(=O)NC1CCOC1=O` (centres undefined), inhibition was half-maximal at 0.2 µM (IC50).
In the case of `O=C(CC(=O)NC1CCOC1=O)CC1CCCCC1` (centres undefined) it was 1.1 µM; in that of `CC(C)(C)CC(=O)CC(=O)NC1CCOC1=O` (centres undefined), 15 µM.
As for `O=C(CC(=O)NC1CCOC1=O)Cc1ccccc1` (centres undefined), the figure is 2 µM; as for `O=C(CC(=O)NC1CCOC1=O)Cc1ccc(C(F)(F)F)cc1` (centres undefined), 10 µM; as for `O=C(CSCc1ccccc1)NC1CCOC1=O` (centres undefined), 2 µM.
With `O=C(CC(=O)NC1CCOC1=O)CC1CCCC1` (centres undefined), the IC50 is 0.25 µM.
The molecule `O=C(CC(=O)NC1CCOC1=O)Cc1ccc(F)cc1` (centres undefined) came in with an IC50 of 4 µM.
In turn, `CC(C)CC(=O)CC(=O)NC1CCOC1=O` (centres undefined) had an IC50 of 0.5 µM.
In the case of `O=C(CC(=O)NC1CCOC1=O)Cc1ccccc1Cl` (centres undefined) it was 6 µM.
